We go through 9 molecules from patent publication US11708348B2, “Protease inhibitors for treatment of coronavirus infections” (The Scripps Research Institute, priority 2021, dated 2023).

The first assay relates to SARS-CoV-2 strain USA-WA1/2020. The assay can be described thus: microbe, parasite or virus in culture. Type of assay: cell-based. Conditions: Severe acute respiratory syndrome coronavirus 2, HeLa-ACE2, 24 h, HeLa-ACE2 cells, SARS-CoV-2 infection, 24 h; class symbols; read-out: EC50, uM (Hela).
In general, EC50 refers to the midpoint of the concentration-response curve. For the molecule `CC(C)C[C@H](NC(=O)C(=O)Nc1ccccc1F)c1cn([C@@H](C[C@@H]2CCNC2=O)C(=O)COc2c(F)c(F)cc(F)c2F)nn1` [Compound 197, N1-(2-fluorophenyl)-N2-((S)-3-methyl-1-(1-((S)-3-oxo-1-((S)-2-oxopyrrolidin-3-yl)-4-(2,3,5,6-tetrafluorophenoxy)butan-2-yl)-1H-1,2,3-triazol-4-yl)butyl)oxalamide], the EC50 was in the range of 0.5 to 1 µM.

Take `CC(C)(C)[C@H](NC(=O)C(=O)Nc1ccccc1F)C(=O)N[C@@H](C[C@@H]1CCNC1=O)C(=O)COc1c(F)c(F)cc(F)c1F` [Compound 119, N1-((S)-3,3-dimethyl-1-oxo-1-(((S)-3-oxo-1-((S)-2-oxopyrrolidin-3-yl)-4-(2,3,5,6-tetrafluorophenoxy)butan-2-yl)amino)butan-2-yl)-N2-(2-fluorophenyl)oxalamide]: the EC50 was in the range of 0.2 to 0.5 µM. Same read-out and setting: under `CC(C)(C)C[C@H](NC(=O)C(=O)NC(C)(C)C)C(=O)N[C@@H](C[C@@H]1CCNC1=O)C(=O)COC(F)(F)F` [Compound 172, N1-(tert-butyl)-N2-((S)-4,4-dimethyl-1-oxo-1-(((S)-3-oxo-1-((S)-2-oxopyrrolidin-3-yl)-4-(trifluoromethoxy)butan-2-yl)amino)pentan-2-yl)oxalamide] stands < 0.05 µM; under `CC[C@@H](O)C(=O)N[C@@H](CC(C)C)C(=O)N[C@@H](C[C@@H]1CCNC1=O)C(=O)COC(F)(F)F` [Compound 369, (S)-2-((R)-2-hydroxybutanamido)-4-methyl-N-((S)-3-oxo-1-((S)-2-oxopyrrolidin-3-yl)-4-(trifluoromethoxy)butan-2-yl)pentanamide], 0.05 to 0.2 µM. The same measure, in the same setting: under `C=CC[C@H](NC(=O)C(=O)Nc1ccccc1)C(=O)N[C@@H](C[C@@H]1CCNC1=O)C(=O)COc1c(F)c(F)cc(F)c1F` [Compound 58, N1-((S)-1-oxo-1-(((S)-3-oxo-1-((S)-2-oxopyrrolidin-3-yl)-4-(2,3,5,6-tetrafluorophenoxy)butan-2-yl)amino)pent-4-en-2-yl)-N2-phenyloxalamide] stands 0.2 to 0.5 µM.

Still in this assay, the particulars now being: Severe acute respiratory syndrome coronavirus 2, HeLa-ACE2, 24 h, HeLa-ACE2 cells, SARS-CoV-2 infection, 24 h; read-out: EC50, uM (Hela).
In the case of `CC(C)(NC(=O)C(=O)N1C[C@@H]2CCC[C@@H]2[C@H]1C(=O)N[C@@H](C[C@@H]1CCNC1=O)C(=O)COC(F)(F)F)C(F)(F)F` [Compound 526, (1S,3aR,6aS)-N-((S)-3-oxo-1-((S)-2-oxopyrrolidin-3-yl)-4-(trifluoromethoxy)butan-2-yl)-2-(2-oxo-2-((1,1,1-trifluoro-2-methylpropan-2-yl)amino)acetyl)-octahydrocyclopenta[c]-pyrrole-1-carboxamide], the EC50 was < 0.05 µM. Take `O=C(Nc1cccc(F)c1F)C(=O)N1CC2(CC2)C[C@H]1C(=O)N[C@@H](C[C@@H]1CCNC1=O)C(=O)COC(F)(F)F` [Compound 598, (S)-5-(2-((2,3-difluorophenyl)amino)-2-oxoacetyl)-N-((S)-3-oxo-1-((S)-2-oxopyrrolidin-3-yl)-4-(trifluoromethoxy)butan-2-yl)-5-azaspiro[2.4]heptane-6-carboxamide]: the EC50 was < 0.05 µM. Same read-out and setting: in the case of `CC(C)(NC(=O)C(=O)N1Cc2ccccc2C[C@H]1C(=O)N[C@@H](C[C@@H]1CCNC1=O)C(=O)COC(F)(F)F)C(F)(F)F` [Compound 472, (S)-N-((S)-3-oxo-1-((S)-2-oxopyrrolidin-3-yl)-4-(trifluoromethoxy)butan-2-yl)-2-(2-oxo-2-((1,1,1-trifluoro-2-methylpropan-2-yl)amino)acetyl)-1,2,3,4-tetrahydro-isoquinoline-3-carboxamide] it was 0.05 to 0.2 µM; in that of `CC(C)C[C@H](NC(=O)CNC1(C(F)(F)F)CC1)C(=O)N[C@@H](C[C@@H]1CCNC1=O)C(=O)COC(F)(F)F` [Compound 434, (S)-4-methyl-N-((S)-3-oxo-1-((S)-2-oxopyrrolidin-3-yl)-4-(trifluoromethoxy)butan-2-yl)-2-(2-((1-(trifluoromethyl)-cyclopropyl)amino)-acetamido)pentanamide], < 0.05 µM.
